# Assays:
# [1] = tested on: KRAS G12D mutant human metastatic pancreatic cancer cell AsPc-1; assay: 3D cell proliferation inhibition assay, AsPc-1; type: cell-based; details: ASPC1, 168 h, AsPc-1, 7 days, CTG, numeric values
# Procedure, shortened: (§1)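 Cells were seeded at 5×10^2 cells/well in low-adsorption plates with compound (10000–0.026 nM final, 0.2% DMSO) and grown for 7 days at 37 °C, 5% CO2. Viability was read by CTG luminescence after 60 min at room temperature. IC50 came from log concentration–inhibition curve fits, normalised to DMSO and medium-only controls.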
# [2] = target: T1, KRAS-G12D (Homo sapiens, UniProt P01116, G12D); assay: KRAS-G12D degradation assay (Western Blot), AGS cells; type: cell-based; details: 24 h
# T1 construct: endogenous in cells; host or cells: A-427 (ATCC), AGS, AsPc-1, Panc 04.03
# Description: (§2) The degradation effects of the compounds on KRAS-G12D were investigated on KRAS G12D mutant human lung cancer cell A-427 (ATCC), KRAS G12D mutant human gastric cancer cell AGS, KRAS G12D mutant human metastatic pancreatic cancer cell AsPc-1, and KRAS G12D mutant human pancreatic adenocarcinoma cell Panc 04.03. The specific procedures were as follows: 0.95 mL of cells were seeded into each well of a 24-well cell culture plate to achieve a cell density of 5×10^5 cells/well; and the cell plate was incubated in an incubator at 37° C. with 5% CO2 overnight. Then 50 μL of the compound solution after dilution was added to each of the wells with the corresponding cells, so that the final concentration of the compound was in a range of 0.03-3000 nM. The final concentration of DMSO was 0.25%. After the compounds were added, the cell plate was incubated in the incubator at 37° C. with 5% CO2 for 24 h. The culture medium in the 24-well cell culture plate was removed, and the plate was washed twice with 1×PBS (KeyGEN). 120 μL of RIPA (strong) lysis buffer (Beyotime) supplemented with 1 mM phenylmethylsulfonyl fluoride, a protease inhibitor mixture (Beyotime), and a protease phosphatase inhibitor mixture (Beyotime) was added to lyse adherent A-427 cells at the bottom of the cell culture plate. After the plate was left to stand on ice for 30 min, the protein lysate in each well was transferred to a 1.5 mL centrifuge tube and centrifuged at 15000 g for 20 min at 4° C. The cell lysate supernatants after centrifugation were cryopreserved in a refrigerator at −80° C. for later use.
# (§3) After the samples of the cell lysate supernatants that had been prepared were thawed from the refrigerator at −80° C., the total protein concentrations of the cell lysates were determined using a BCA protein quantification kit (Tiangen). The total protein concentrations of the samples were then adjusted to 0.5 μg/μL with PBS and 5×SDS-PAGE protein loading buffer (Beyotime), and the samples were incubated in a water bath at 100° C. for 15 min. The samples were then incubated in an ice bath for 5 min and centrifuged at 14000 g for 1 min at 4° C., and the supernatants were mixed well as loading samples for the Western Blot assay. The samples were loaded into wells of a 10% precast gel (KeyGEN) with a loading volume of 10 μL (total protein: 5 μg), a sufficient Tris-MOPS-SDS running buffer (Adamas) was added, and then electrophoresis was performed at a constant voltage of 120 V for 55 min. After the electrophoresis, the proteins on the gel were transferred to PVDF membranes at a constant current of 250 mA for 55 min. After the membrane transfer, the PVDF membranes were incubated in 1× Quick Block blocking buffer (Beyotime) at room temperature for 30 min. After the blocking, the PVDF membranes were separately incubated at 4° C. overnight with the KRAS antibody (Abcam) diluted in a ratio of 1:1000 and the […] antibody (Abcam) diluted in a ratio of 1:2000 in 5% BSA as the diluent, and then washed with 1×TBST buffer (2.4 g of Tris, 8.8 g of NaCl, 1.5 mL of Tween 20, with pH adjusted to 7.4, with the volume brought to 1 L) 3 times for 10 min/time. The membranes were incubated with a secondary antibody (Abcam) diluted in 5% BSA at room temperature for 2 h, and then washed with 1×TBST buffer 3 times for 10 min/time. Finally, the membranes were incubated with Clarity Western ECL Substrate (BIO-RAD) for 5 min for luminescence and color development, and a ChemiScope 6200 Touch chemiluminescence imaging system (Clinx) was used for color development and protein mapping. Gray value analysis of the protein maps was performed using the chemiluminescence analysis software (Clinx). The gray correction value for each sample was calculated using the formula: gray correction value=(gray value of target protein/gray value of corresponding internal reference)×10^3. Then degradation rates were calculated by comparison with the gray correction value of the control group. […]
# [3] = target: T1, KRAS-G12D; assay: KRAS-G12D degradation assay (Western Blot), A-427 cells; type: cell-based; details: A427 cells, 24 h, numeric values; for Dmax: A-427
# Procedure, shortened: (§4)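 Each KRAS G12D mutant line (A-427, AGS, AsPc-1, Panc 04.03) was seeded at 5×10^5 cells/well and treated 24 h at 37 °C with 0.03–3000 nM compound (final DMSO 0.25%). KRAS in lysates was measured by Western blot, normalized to β-actin and compared with controls, giving DC50 and Dmax from curve fits.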
# [4] = tested on: KRAS G12D mutant human lung cancer cell A427; assay: 3D cell proliferation inhibition assay, A427; type: cell-based; details: A-427, 168 h, A427, 7 days, CTG, numeric values
# Procedure, shortened: as §1
# [5] = tested on: KRAS G12D mutant human pancreatic cancer cell HPAC; assay: 3D cell proliferation inhibition assay, HPAC; type: cell-based; details: 168 h, 7 days, CTG
# Procedure, shortened: as §1
# [6] = tested on: KRAS G12D mutant human pancreatic cancer cell Panc 04.03; assay: 3D cell proliferation inhibition assay, Panc 04.03; type: cell-based; details: 168 h, Panc 04.03, 7 days, CTG, numeric values
# Procedure, shortened: as §1
# [7] = tested on: KRAS G12D mutant human gastric cancer cell AGS; assay: 3D cell proliferation inhibition assay, AGS; type: cell-based; details: 168 h, 7 days, CTG, numeric values
# Procedure, shortened: as §1
# [8] = target: T1, KRAS-G12D; assay: KRAS-G12D degradation assay (Western Blot), Panc 04.03 cells; type: cell-based; details: 24 h
# Description: as §2, §3
# [9] = target: T1, KRAS-G12D; assay: KRAS-G12D degradation assay (Western Blot), AsPc-1 cells; type: cell-based; details: for DC50: 24 h; for Dmax: ASPC1, 24 h
# Procedure, shortened: as §4
# [10] = tested on: KRAS-G12D mutant cells; details: KRAS-G12D mutant cells versus wild-type tumor cells; cited from earlier work
# [11] = tested on: xenograft tumor models of both pancreatic cancer and colorectal cancer; details: cited from earlier work
# T1 sequence (P01116 1-188 isoform P01116-2 G12D): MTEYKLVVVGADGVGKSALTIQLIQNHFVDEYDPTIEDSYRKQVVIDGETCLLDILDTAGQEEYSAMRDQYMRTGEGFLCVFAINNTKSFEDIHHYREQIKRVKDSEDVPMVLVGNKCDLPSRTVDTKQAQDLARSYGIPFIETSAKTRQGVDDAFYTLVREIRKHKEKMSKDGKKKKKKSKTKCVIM
compound,measurement,setting,value
"C#Cc1c(F)ccc2cc(O)cc(-c3ccc4c(N5CC6CCC(C5)N6)nc(OCC5(CN6CCN(CC7CCC8(CC7)CCN(C(=O)c7ccc(OC)c(N9CCC(=O)NC9=O)c7)CC8)CC6)CC5)nc4c3F)c12 [Example 71, 1-(5-(9-((4-((1-(((4-(3,8-diazabicyclo[3.2.1]octan-3-yl)-7-(8-ethynyl-7-fluoro-3-hydroxynaphthalen-1-yl)-8-fluoroquinazolin-2-yl)oxy)methyl)cyclopropyl)methyl)piperazin-1-yl)methyl)-3-azaspiro[5.5]undecane-3-carbonyl)-2-methoxyphenyl)dihydropyrimidine-2,4(1H,3H)-dione]",IC50,[1],5.28 nM
same,DC50,[2],7.02 nM
same,Dmax,[2],99.6%
same,DC50,[3],2.1 nM
same,Dmax,[3],95%
same,IC50,[4],46.8 nM
same,IC50,[5],9.31 nM
same,IC50,[6],16.7 nM
same,IC50,[7],4.17 nM
same,DC50,[8],11.9 nM
same,Dmax,[8],98.8%
same,DC50,[9],4.76 nM
same,Dmax,[9],98.6%
"CCc1c(F)ccc2cc(O)cc(-c3ccc4c(N5CC6CCC(C5)N6)nc(OCC5(CN6CCN(CC7CCC8(CC7)CCN(C(=O)c7ccc(OC)c(N9CCC(=O)NC9=O)c7)CC8)CC6)CC5)nc4c3F)c12 [Example 73, 1-(5-(9-((4-((1-(((4-(3,8-diazabicyclo[3.2.1]octan-3-yl)-7-(8-ethyl-7-fluoro-3-hydroxynaphthalen-1-yl)-8-fluoroquinazolin-2-yl)oxy)methyl)cyclopropyl)methyl)piperazin-1-yl)methyl)-3-azaspiro[5.5]undecane-3-carbonyl)-2-methoxyphenyl)dihydropyrimidine-2,4(1H,3H)-dione]",IC50,[1],14.9 nM
same,DC50,[2],16 nM
same,Dmax,[2],85.7%
same,DC50,[3],19.8 nM
same,Dmax,[3],87.2%
same,IC50,[4],3.54 nM
same,IC50,[5],14.7 nM
same,IC50,[6],64.8 nM
same,IC50,[7],21.1 nM
same,DC50,[8],27.1 nM
same,Dmax,[8],95.6%
same,DC50,[9],35.7 nM
same,Dmax,[9],100%
"CCc1c(F)ccc2cc(O)cc(-c3ccc4c(N5CC6CCC(C5)N6)nc(OCC5(CN6CCN(CC7CCC8(CC7)CCN(C(=O)c7ccc(C)c(N9CCC(=O)NC9=O)c7)CC8)CC6)CC5)nc4c3F)c12 [Example 75, 1-(5-(9-((4-((1-(((4-(3,8-diazabicyclo[3.2.1]octan-3-yl)-7-(8-ethyl-7-fluoro-3-hydroxynaphthalen-1-yl)-8-fluoroquinazolin-2-yl)oxy)methyl)cyclopropyl)methyl)piperazin-1-yl)methyl)-3-azaspiro[5.5]undecane-3-carbonyl)-2-methylphenyl)dihydropyrimidine-2,4(1H,3H)-dione]",IC50,[1],14.8 nM
same,DC50,[2],57.8 nM
same,Dmax,[2],89.2%
same,DC50,[3],4.13 nM
same,Dmax,[3],83.8%
same,IC50,[4],88.1 nM
same,IC50,[5],11.3 nM
same,IC50,[6],83.9 nM
same,IC50,[7],9.1 nM
same,DC50,[8],9.38 nM
same,Dmax,[8],92%
same,DC50,[9],8.79 nM
same,Dmax,[9],99.5%
"C#Cc1cccc2cc(O)cc(-c3ccc4c(N5CC6CCC(C5)N6)nc(OCC5(CN6CCN(CC7CCC8(CC7)CCN(C(=O)c7ccc(C)c(N9CCC(=O)NC9=O)c7)CC8)CC6)CC5)nc4c3F)c12 [Example 77, 1-(5-(9-((4-((1-(((4-(3,8-diazabicyclo[3.2.1]octan-3-yl)-7-(8-ethynyl-3-hydroxynaphthalen-1-yl)-8-fluoroquinazolin-2-yl)oxy)methyl)cyclopropyl)methyl)piperazin-1-yl)methyl)-3-azaspiro[5.5]undecane-3-carbonyl)-2-methylphenyl)dihydropyrimidine-2,4(1H,3H)-dione]",IC50,[1],6.75 nM
same,DC50,[2],1.47 nM
same,Dmax,[2],100%
same,DC50,[3],1.76 nM
same,Dmax,[3],94.5%
same,IC50,[4],17.8 nM
same,IC50,[5],9.54 nM
same,IC50,[6],31.5 nM
same,IC50,[7],8.9 nM
same,DC50,[8],26.2 nM
same,Dmax,[8],98.5%
same,DC50,[9],13.2 nM
same,Dmax,[9],98.2%
"C#Cc1cccc2cc(O)cc(-c3ccc4c(N5CC6CCC(C5)N6)nc(OCC5(CN6CCN(CC7CCC8(CC7)CCN(C(=O)c7ccc(Cl)c(N9CCC(=O)NC9=O)c7)CC8)CC6)CC5)nc4c3F)c12 [Example 78, 1-(5-(9-((4-((1-(((4-(3,8-diazabicyclo[3.2.1]octan-3-yl)-7-(8-ethynyl-3-hydroxynaphthalen-1-yl)-8-fluoroquinazolin-2-yl)oxy)methyl)cyclopropyl)methyl)piperazin-1-yl)methyl)-3-azaspiro[5.5]undecane-3-carbonyl)-2-chlorophenyl)dihydropyrimidine-2,4(1H,3H)-dione]",IC50,[1],17 nM
same,DC50,[2],28.9 nM
same,Dmax,[2],92.6%
same,DC50,[3],10.1 nM
same,Dmax,[3],70.2%
same,IC50,[4],16.3 nM
same,IC50,[5],18.7 nM
same,IC50,[6],37.9 nM
same,IC50,[7],9.25 nM
same,DC50,[8],16.3 nM
same,Dmax,[8],100%
same,DC50,[9],23.7 nM
same,Dmax,[9],100%
"C#Cc1cccc2cc(O)cc(-c3ncc4c(N5CC6CCC(C5)N6)nc(OCC5(CN6CCN(CC7CCC8(CC7)CCN(C(=O)c7ccc(OC)c(N9CCC(=O)NC9=O)c7)CC8)CC6)CC5)nc4c3F)c12 [Example 82, 1-(5-(9-((4-((1-(((4-(3,8-diazabicyclo[3.2.1]octan-3-yl)-7-(8-ethynyl-3-hydroxynaphthalen-1-yl)-8-fluoropyrido[4,3-d]pyrimidin-2-yl)oxy)methyl)cyclopropyl)methyl)piperazin-1-yl)methyl)-3-azaspiro[5.5]undecane-3-carbonyl)-2-methoxyphenyl)dihydropyrimidine-2,4(1H,3H)-dione]",IC50,[1],4.95 nM
same,DC50,[2],3.84 nM
same,Dmax,[2],97.7%
same,DC50,[3],1.21 nM
same,Dmax,[3],99%
same,IC50,[4],21.8 nM
same,IC50,[5],4.15 nM
same,IC50,[6],14.1 nM
same,IC50,[7],5.78 nM
same,DC50,[8],6.74 nM
same,Dmax,[8],100%
same,DC50,[9],12.6 nM
same,Dmax,[9],93.7%
C#Cc1c(F)ccc2cc(O)cc(-c3ncc4c(N5CC6CCC(C5)N6)nc(OC[C@@]56CCCN5C[C@H](F)C6)nc4c3F)c12 [MRTX1133],specificity,[10],more than 1000 times
same,inhibition in xenograft tumor models,[11],Dose-dependent inhibition

# — US20260166159A1, “KRAS G12D DEGRADATION AGENT, AND PREPARATION METHOD AND USE THEREFOR” (LEADINGTAC PHARMACEUTICAL (SHAOXING) CO., LTD., priority 2022, published 2026)
